Source: the supplement of paper PMC10307832

What was measured:
Assay in all cases: relative viability (nuclei count vs DMSO), 5 days (fraction); higher = more cells survive
NCI-H2087 = tested on: NCI-H2087
Procedure, shortened: (§1)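 The day after seeding in 1536-well plates, lung cancer cell lines were treated by pin tool with a single drug, or with a fixed anchor-drug dose together with five library-drug doses (not always all listed) in √10 steps. After 5 days, a combined fix-and-stain solution (final 0.05% Triton X-100, 1% formaldehyde, 1 ug/ml Hoechst) was added. Nuclei counted on 4× images gave relative viability as treated counts over vehicle counts, reported as the median of duplicate plates.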

UMC-11 = tested on: UMC-11
Procedure, shortened: as §1

NCI-H1355 = tested on: NCI-H1355
Procedure, shortened: as §1

NCI-H1651 = tested on: NCI-H1651
Procedure, shortened: as §1

EMC-BAC-2 = tested on: EMC-BAC-2
Procedure, shortened: as §1

NCI-H650 = tested on: NCI-H650
Procedure, shortened: as §1

EPLC-272H = tested on: EPLC-272H
Procedure, shortened: as §1

NCI-H2023 = tested on: NCI-H2023
Procedure, shortened: as §1

NCI-H520 = tested on: NCI-H520
Procedure, shortened: as §1

LCLC-97TM1 = tested on: LCLC-97TM1
Procedure, shortened: as §1

SK-MES-1 = tested on: SK-MES-1
Procedure, shortened: as §1

HCC-44 = tested on: HCC-44
Procedure, shortened: as §1

NCI-H1793 = tested on: NCI-H1793
Procedure, shortened: as §1

H3255 = tested on: H3255
Procedure, shortened: as §1

HCC-827 = tested on: HCC-827
Procedure, shortened: as §1

NCI-H1944 = tested on: NCI-H1944
Procedure, shortened: as §1

NCI-H2405 = tested on: NCI-H2405
Procedure, shortened: as §1

LCLC-103H = tested on: LCLC-103H
Procedure, shortened: as §1

NCI-H1395 = tested on: NCI-H1395
Procedure, shortened: as §1

ChaGo-K-1 = tested on: ChaGo-K-1
Procedure, shortened: as §1

NCI-H2085 = tested on: NCI-H2085
Procedure, shortened: as §1

NCI-H322M = tested on: NCI-H322M
Procedure, shortened: as §1

## NC(=O)Nc1cc(-c2cccc(F)c2)sc1C(=O)N[C@H]1CCCNC1 [AZD7762] + CC(=O)Nc1cccc(-n2c(=O)n(C3CC3)c(=O)c3c(Nc4ccc(I)cc4F)n(C)c(=O)c(C)c32)c1 [Trametinib] (partner 0.02 µM)
NCI-H2087; first compound 0.01 µM
  relative viability: 0.211
NCI-H2087; first compound 0.03162 µM
  relative viability: 0.212
NCI-H2087; first compound 0.1 µM
  relative viability: 0.248
NCI-H2087; first compound 0.3162 µM
  relative viability: 0.333
NCI-H2087; first compound 1 µM
  relative viability: 0.254
UMC-11; first compound 0.01 µM
  relative viability: 0.678
UMC-11; first compound 0.03162 µM
  relative viability: 0.696
UMC-11; first compound 0.1 µM
  relative viability: 0.656
UMC-11; first compound 0.3162 µM
  relative viability: 0.665
UMC-11; first compound 1 µM
  relative viability: 0.33
NCI-H1355; first compound 0.01 µM
  relative viability: 0.406
NCI-H1355; first compound 0.03162 µM
  relative viability: 0.466
NCI-H1355; first compound 0.1 µM
  relative viability: 0.368
NCI-H1355; first compound 0.3162 µM
  relative viability: 0.441
NCI-H1355; first compound 1 µM
  relative viability: 0.522
NCI-H1651; first compound 0.01 µM
  relative viability: 0.882
NCI-H1651; first compound 0.03162 µM
  relative viability: 0.852
NCI-H1651; first compound 0.1 µM
  relative viability: 0.871
NCI-H1651; first compound 0.3162 µM
  relative viability: 0.873
NCI-H1651; first compound 1 µM
  relative viability: 0.766
EMC-BAC-2; first compound 0.01 µM
  relative viability: 1.02
EMC-BAC-2; first compound 0.03162 µM
  relative viability: 0.84
EMC-BAC-2; first compound 0.1 µM
  relative viability: 0.921
EMC-BAC-2; first compound 0.3162 µM
  relative viability: 0.973
EMC-BAC-2; first compound 1 µM
  relative viability: 0.839
NCI-H650; first compound 0.01 µM
  relative viability: 0.984
NCI-H650; first compound 0.03162 µM
  relative viability: 1.08
NCI-H650; first compound 0.1 µM
  relative viability: 1.05
NCI-H650; first compound 0.3162 µM
  relative viability: 1.04
NCI-H650; first compound 1 µM
  relative viability: 0.756
EPLC-272H; first compound 0.01 µM
  relative viability: 0.28
EPLC-272H; first compound 0.03162 µM
  relative viability: 0.297
EPLC-272H; first compound 0.1 µM
  relative viability: 0.277
EPLC-272H; first compound 0.3162 µM
  relative viability: 0.293
EPLC-272H; first compound 1 µM
  relative viability: 0.227
NCI-H2023; first compound 0.01 µM
  relative viability: 0.596
NCI-H2023; first compound 0.03162 µM
  relative viability: 0.46
NCI-H2023; first compound 0.1 µM
  relative viability: 0.293
NCI-H2023; first compound 0.3162 µM
  relative viability: 0.156
NCI-H2023; first compound 1 µM
  relative viability: 0.132
NCI-H520; first compound 0.01 µM
  relative viability: 0.713
NCI-H520; first compound 0.03162 µM
  relative viability: 0.702
NCI-H520; first compound 0.1 µM
  relative viability: 0.653
NCI-H520; first compound 0.3162 µM
  relative viability: 0.484
NCI-H520; first compound 1 µM
  relative viability: 0.194
LCLC-97TM1; first compound 0.01 µM
  relative viability: 0.199
LCLC-97TM1; first compound 0.03162 µM
  relative viability: 0.214
LCLC-97TM1; first compound 0.1 µM
  relative viability: 0.185
LCLC-97TM1; first compound 0.3162 µM
  relative viability: 0.202
LCLC-97TM1; first compound 1 µM
  relative viability: 0.182
SK-MES-1; first compound 0.01 µM
  relative viability: 0.543
SK-MES-1; first compound 0.03162 µM
  relative viability: 0.535
SK-MES-1; first compound 0.1 µM
  relative viability: 0.559
SK-MES-1; first compound 0.3162 µM
  relative viability: 0.347
SK-MES-1; first compound 1 µM
  relative viability: 0.227
HCC-44; first compound 0.01 µM
  relative viability: 1.13
HCC-44; first compound 0.03162 µM
  relative viability: 1.04
HCC-44; first compound 0.1 µM
  relative viability: 1.12
HCC-44; first compound 0.3162 µM
  relative viability: 1.15
HCC-44; first compound 1 µM
  relative viability: 1.16
NCI-H1793; first compound 0.01 µM
  relative viability: 0.469
NCI-H1793; first compound 0.03162 µM
  relative viability: 0.485
NCI-H1793; first compound 0.1 µM
  relative viability: 0.456
NCI-H1793; first compound 0.3162 µM
  relative viability: 0.446
NCI-H1793; first compound 1 µM
  relative viability: 0.381
H3255; first compound 0.01 µM
  relative viability: 0.71
H3255; first compound 0.03162 µM
  relative viability: 0.72
H3255; first compound 0.1 µM
  relative viability: 0.698
H3255; first compound 0.3162 µM
  relative viability: 0.618
H3255; first compound 1 µM
  relative viability: 0.682
HCC-827; first compound 0.01 µM
  relative viability: 0.577
HCC-827; first compound 0.03162 µM
  relative viability: 0.534
HCC-827; first compound 0.1 µM
  relative viability: 0.561
HCC-827; first compound 0.3162 µM
  relative viability: 0.575
HCC-827; first compound 1 µM
  relative viability: 0.376
NCI-H1944; first compound 0.01 µM
  relative viability: 0.443
NCI-H1944; first compound 0.03162 µM
  relative viability: 0.493
NCI-H1944; first compound 0.1 µM
  relative viability: 0.473
NCI-H1944; first compound 0.3162 µM
  relative viability: 0.523
NCI-H1944; first compound 1 µM
  relative viability: 0.496
NCI-H2405; first compound 0.01 µM
  relative viability: 0.744
NCI-H2405; first compound 0.03162 µM
  relative viability: 0.57
NCI-H2405; first compound 0.1 µM
  relative viability: 0.557
NCI-H2405; first compound 0.3162 µM
  relative viability: 0.631
NCI-H2405; first compound 1 µM
  relative viability: 0.347
LCLC-103H; first compound 0.01 µM
  relative viability: 0.683
LCLC-103H; first compound 0.03162 µM
  relative viability: 0.674
LCLC-103H; first compound 0.1 µM
  relative viability: 0.712
LCLC-103H; first compound 0.3162 µM
  relative viability: 0.574
LCLC-103H; first compound 1 µM
  relative viability: 0.712
NCI-H1395; first compound 0.01 µM
  relative viability: 1.18
NCI-H1395; first compound 0.03162 µM
  relative viability: 1.12
NCI-H1395; first compound 0.1 µM
  relative viability: 0.92
NCI-H1395; first compound 0.3162 µM
  relative viability: 0.637
NCI-H1395; first compound 1 µM
  relative viability: 0.368
ChaGo-K-1; first compound 0.01 µM
  relative viability: 0.871
ChaGo-K-1; first compound 0.03162 µM
  relative viability: 0.914
ChaGo-K-1; first compound 0.1 µM
  relative viability: 0.93
ChaGo-K-1; first compound 0.3162 µM
  relative viability: 0.9
ChaGo-K-1; first compound 1 µM
  relative viability: 0.958
NCI-H2085; first compound 0.01 µM
  relative viability: 0.514
NCI-H2085; first compound 0.03162 µM
  relative viability: 0.559
NCI-H2085; first compound 0.1 µM
  relative viability: 0.632
NCI-H2085; first compound 0.3162 µM
  relative viability: 0.713
NCI-H2085; first compound 1 µM
  relative viability: 0.357
NCI-H322M; first compound 0.01 µM
  relative viability: 0.548
NCI-H322M; first compound 0.03162 µM
  relative viability: 0.583
NCI-H322M; first compound 0.1 µM
  relative viability: 0.526
NCI-H322M; first compound 0.3162 µM
  relative viability: 0.58
NCI-H322M; first compound 1 µM
  relative viability: 0.369
